Patent US10131932B2, “Method for assaying a protease” (McMaster University, priority 2013, dated 2018)

Key:
Thrombin [1] = assay: Thrombin activity on T13 FRET-protein substrate with inhibitors; assay type: biochemical; settings: 60 minutes incubation, alpha-2-macroglobulin 0.2 μM, PPAck 20 μM
Protocol: The effect of the FRET-protein substrate on the thrombin activity in the absence and presence of alph-2-macroglobulin was then determined. Following addition of either thrombin (as above), thrombin incubated with alpha-2-macroglobulin for 60 minutes (as above) or thrombin incubated for 60 minutes with the thrombin inhibitor, PPAck (D-FPR-chloromethyl ketone, 20 μM), thrombin activity was determined. Thrombin was inhibited by either alpha-2-macroglobulin or PPAck, as shown by the reduction in the slope of the ratio for each (FIG. 11B).

Thrombin [2] = assay: Thrombin activity on substrate S2238 with inhibitors; assay type: biochemical; settings: 60 minutes incubation, alpha-2-macroglobulin 0.2 μM, PPAck 20 μM
Protocol: The effect of thrombin substrate, S2238, on thrombin activity in the presence and absence of alpha-2-macroglobulin was then determined. Following addition of thrombin (as above), thrombin incubated with alpha-2-macroglobulin for 60 minutes (as above), thrombin incubated with PPAck (as above) for 60 minutes, or thrombin incubated with alpha-2-macroglobulin (0.2 μM) and PPAck (20 μM) for 60 minutes, to S2238, thrombin activity was determined.

[3] = test system: thrombin generation in whole blood; assay: Thrombin generation in unanticoagulated whole blood with FRET-protein substrate; assay type: biochemical, human; settings: for area-under-the-curve of slope of the ratio curve / maximal upslope of slope of the ratio curve / peak height of slope of the ratio curve / thrombin generation: increasing amounts of anticoagulant in whole blood
Protocol: In this experiment, 12 μL of unanticoagulated human blood, obtained from a finger prick of a healthy human donor, was added to a plastic vessel (NUNC, Polystyrene, 384 well plate) containing the T13 FRET-protein substrate (8 μL in PIPES buffer, 4.6 μM final concentration) within 30 seconds of lancing the finger. Results were obtained on a fluorescence spectrophotometer, as above, temperature controlled to 37° C. Initially, as the mixture warms, the ratio of emission at 526 nm:581 nm decreases slightly, but then increases, initially sharply to a plateau as shown in FIG. 6.
The slope (first derivative) of the ratio was then determined using a mathematical program such as Excel or GraphPad Prism as shown in FIG. 7A. The curve of the slope of the ratio is smoothed using 20 neighbours using a mathematical program (Excel or GraphPad Prism). This is the typical appearance of a thrombin generation curve in plasma. Parameters that could be used to describe this curve include, but are not limited to, peak height, time to peak, lag time, maximal upslope, and area-under-the curve to a certain time point. FIG. 7B compares a) 12 μL blood combined with FRET-protein substrate (final conc. 4.6 μM) to final volume of 20 μL to b) 20 μL blood combined with FRET-protein substrate (final conc. 5.1 μM) to a final volume of 22.5 μL. The time-to-peak and lag-time are shortened and the peak height, maximal upslope and area-under-the-curve are increased in the latter where the blood is less dilute.
The effect of rivaroxaban on thrombin generation in the blood was determined. Unanticoagulated blood was taken from a finger prick of a healthy volunteer. The blood was added to a plastic vessel containing the FRET-protein substrate (0.62 μM) and rivaroxaban at various concentrations (to a final concentration of 5 μg/L, 25 μg/L and 50 μg/L).
The effect of apixaban on thrombin generation in the blood was also determined. Blood was added to FRET-protein substrate and various concentrations of apixaban was (to a final concentration of 25 μg/L, 100 μg/L, 400 μg/L and 1000 μg/L). Apixaban also alters the shape of the “slope of the ratio curve”.
The effect of dabigatran on thrombin generation in the blood was also determined. Blood was added to FRET-protein substrate and various concentrations of […] was (to a final concentration of 25 μg/L, 100 μg/L and 400 μg/L). Dabigatran also alters the shape of the “slope of the ratio curve”. […]

Thrombin [4] = assay: Fibrinogen clotting by thrombin, turbidity at 405 nm; assay type: biochemical; settings: 0.2 μM
Protocol: The effect of alpha-2-macroglobulin on thrombin activity was determined. Thrombin (2 nM) and calcium (5 mM) were combined in PIPES buffer. Clotting was initiated by the addition of fibrinogen (3 μM). Clotting was measured by monitoring turbidity 405 nm using a spectrometer. The fibrinogen clotted within 10 minutes and remained clotted.

Molecule: NC(N)=NCCC[C@H](NC(=O)[C@@H]1CCCN1C(=O)[C@H](N)Cc1ccccc1)C(=O)CCl [PPAck, D-FPR-chloromethyl ketone]
- thrombin activity (slope of the ratio) (Thrombin [1]): inhibited
- thrombin activity (slope of absorbance) (Thrombin [2]): substantial inhibition

Molecule: COc1ccc(-n2nc(C(N)=O)c3c2C(=O)N(c2ccc(N4CCCCC4=O)cc2)CC3)cc1 [apixaban]
- time to peak ([3]; anticoagulant in whole blood, dabigatran at higher concentrations): increase the time to peak
- area-under-the-curve of slope of the ratio curve [3]: decreased
- maximal upslope of slope of the ratio curve [3]: decreased
- peak height of slope of the ratio curve [3]: decreased
- thrombin generation [3]: decreases thrombin generation

Molecule: O=C(NC[C@H]1CN(c2ccc(N3CCOCC3=O)cc2)C(=O)O1)c1ccc(Cl)s1 [rivaroxaban]
- area-under-the-curve of slope of the ratio curve [3]: decreased
- maximal upslope of slope of the ratio curve [3]: decreased
- peak height of slope of the ratio curve [3]: decreased
- thrombin generation [3]: decrease thrombin generation

Molecule: corn trypsin inhibitor
- thrombin generation (peak of slope of ratio) ([3]; 200 μg/mL final concentration, unanticoagulated whole blood): delay and reduce

B1: alpha-2-macroglobulin: thrombin-binding plasma inhibitor protein (protein, UniProt P01023 24-1474, looked up)
Alpha-2-macroglobulin: SVSGKPQYMVLVPSLLHTETTEKGCVLLSYLNETVTVSASLESVRGNRSLFTDLEAENDVLHCVAFAVPKSSSNEEVMFLTVQVKGPTQEFKKRTTVMVKNEDSLVFVQTDKSIYKPGQTVKFRVVSMDENFHPLNELIPLVYIQDPKGNRIAQWQSFQLEGGLKQFSFPLSSEPFQGSYKVVVQKKSGGRTEHPFTVEEFVLPKFEVQVTVPKIITILEEEMNVSVCGLYTYGKPVPGHVTVSICRKYSDASDCHGEDSQAFCEKFSGQLNSHGCFYQQVKTKVFQLKRKEYEMKLHTEAQIQEEGTVVELTGRQSSEITRTITKLSFVKVDSHFRQGIPFFGQVRLVDGKGVPIPNKVIFIRGNEANYYSNATTDEHGLVQFSINTTNVMGTSLTVRVNYKDRSPCYGYQWVSEEHEEAHHTAYLVFSPSKSFVHLEPMSHELPCGHTQTVQAHYILNGGTLLGLKKLSFYYLIMAKGGIVRTGTHGLLVKQEDMKGHFSISIPVKSDIAPVARLLIYAVLPTGDVIGDSAKYDVENCLANKVDLSFSPSQSLPASHAHLRVTAAPQSVCALRAVDQSVLLMKPDAELSASSVYNLLPEKDLTGFPGPLNDQDNEDCINRHNVYINGITYTPVSSTNEKDMYSFLEDMGLKAFTNSKIRKPKMCPQLQQYEMHGPEGLRVGFYESDVMGRGHARLVHVEEPHTETVRKYFPETWIWDLVVVNSAGVAEVGVTVPDTITEWKAGAFCLSEDAGLGISSTASLRAFQPFFVELTMPYSVIRGEAFTLKATVLNYLPKCIRVSVQLEASPAFLAVPVEKEQAPHCICANGRQTVSWAVTPKSLGNVNFTVSAEALESQELCGTEVPSVPEHGRKDTVIKPLLVEPEGLEKETTFNSLLCPSGGEVSEELSLKLPPNVVEESARASVSVLGDILGSAMQNTQNLLQMPYGCGEQNMVLFAPNIYVLDYLNETQQLTPEIKSKAIGYLNTGYQRQLNYKHYDGSYSTFGERYGRNQGNTWLTAFVLKTFAQARAYIFIDEAHITQALIWLSQRQKDNGCFRSSGSLLNNAIKGGVEDEVTLSAYITIALLEIPLTVTHPVVRNALFCLESAWKTAQEGDHGSHVYTKALLAYAFALAGNQDKRKEVLKSLNEEAVKKDNSVHWERPQKPKAPVGHFYEPQAPSAEVEMTSYVLLAYLTAQPAPTSEDLTSATNIVKWITKQQNAQGGFSSTQDTVVALHALSKYGAATFTRTGKAAQVTIQSSGTFSSKFQVDNNNRLLLQQVSLPELPGEYSMKVTGEGCVYLQTSLKYNILPEKEEFPFALGVQTLPQTCDEPKAHTSFQISLSVSYTGSRSASNMAIVDVKMVSGFIPLKPTVKMLERSNHVSRTEVSSNHVLIYLDKVSNQTLSLFFTVLQDVPVRDLKPAIVKVYDYYETDEFAIAEYNAPCSKDLGNA
- thrombin activity (slope of the ratio) (Thrombin [1]): inhibited
- thrombin activity (slope of absorbance) (Thrombin [2]): little inhibition
- clotting of fibrinogen (Thrombin [4]; pre-incubation with thrombin (2 nM) for 35 minutes): reduced clotting
- clotting of fibrinogen (Thrombin [4]; pre-incubation with thrombin (2 nM) for 60 minutes): inhibited clotting
